In paper PMC9851200, “Multiparameter phenotypic screening for endogenous TFEB and TFE3 translocation identifies novel chemical series modulating lysosome function” (Autophagy, 2022):
Read-outs that look alike come from different tables or passages of the source.

Tests used:
endogenous TFE3 = assay: TFE3 nuclear translocation, immunocytochemistry high-content imaging; type: cell-based
SH-SY5Y cells [1] = assay: AK (adenylate kinase) release ToxiLight cytotoxicity assay; also: reference of the scale not given here
SH-SY5Y cells [2] = assay: Nuclear count from microscopy images (cellular growth and toxicity); also: reference of the scale not given here
SH-SY5Y cells [3] = system: SH-SY5Y cells; also: reference of the scale not given here
endogenous TFEB = assay: TFEB nuclear translocation, immunocytochemistry high-content imaging; type: cell-based
[4] = PKIS2 primary screening, DQ Red BSA intensity
[5] = PKIS2 primary screening, DQ Red BSA spot count

Compound | TFE3 % (endogenous TFE3; PKIS2 primary screening) [%] | AK (SH-SY5Y cells [1]; PKIS2 primary screening) | Nuclear Count (SH-SY5Y cells [2]; PKIS2 primary screening) | DQ Intensity (SH-SY5Y cells [3]; [4]) | DQ Spot (SH-SY5Y cells [3]; [5]) | TFEB % (endogenous TFEB; PKIS2 primary screening) [%] | DQ Intensity (SH-SY5Y cells [3]; PKIS2 primary screening) | DQ Spot (SH-SY5Y cells [3]; PKIS2 primary screening) | TFE3 % (endogenous TFE3; PKIS2 primary screen) [%] | AK (SH-SY5Y cells [1]; PKIS2 primary screen) | Nuclear Count (SH-SY5Y cells [2]; PKIS2 primary screen) | DQ Intensity (SH-SY5Y cells [3]; PKIS2 primary screen, DQ Red BSA intensity) | DQ Spot (SH-SY5Y cells [3]; PKIS2 primary screen, DQ Red BSA spot count) | TFEB % (endogenous TFEB; PKIS2 primary screen) [%]
CS(=O)(=O)CCNCc1nc(-c2ccc3ncnc(Nc4ccc5c(cnn5Cc5ccccc5)c4)c3c2)cs1.Cl.Cl [UNC10225115A] | 17.35 | 99.64 | 105.59 | 104.52 | 112.81 | 3.62 |  |  |  |  |  |  |  | 
Fc1ccc(-c2nn3cccc(F)c3c2-c2ccncc2)cc1 [UNC10225116A] | 11.01 | 96.78 | 80.47 | 138.45 | 107.80 | 9.32 |  |  |  |  |  |  |  | 
NC(=O)Nc1sc(-c2ccc(F)cc2)cc1C(N)=O [UNC10225118A] | 11.46 | 76.60 | 81.29 |  |  | 7.01 | 77.43 | 92.26 |  |  |  |  |  | 
Cc1ccc(-c2cc(-c3c[nH]nc3-c3ccccn3)ccn2)cc1 [UNC10225125A] | 5.68 | 116.20 | 147.86 | 86.68 | 93.68 | 3.15 |  |  |  |  |  |  |  | 
COc1ccc(COc2cc(-n3cnc4ccccc43)sc2C(N)=O)cc1 [UNC10225127A] | 11.50 | 69.30 | 109.00 |  |  | 4.73 | 119.47 | 107.75 |  |  |  |  |  | 
Cl.Oc1cc(-c2nc(-c3ccccc3)[nH]c2-c2ccncc2)ccc1Cl [UNC10225128B] | 11.76 | 91.39 | 80.05 | 96.34 | 92.51 | 6.45 |  |  |  |  |  |  |  | 
O=c1cc(N2CCOCC2)nc2n(Cc3cccc(Cl)c3)ccn12 [UNC10225131A] | 11.28 | 96.90 | 104.22 |  |  | 5.81 | 103.05 | 113.71 |  |  |  |  |  | 
CCOC(=O)N1CCC(n2cnc(-c3ccc(F)cc3)c2-c2ccnc(N)n2)CC1 [UNC10225132A] | 8.29 | 115.58 | 129.88 |  |  | 10.30 | 90.15 | 96.37 |  |  |  |  |  | 
O=c1cc(N2CCOCC2)nc2n(Cc3cccc(Cl)c3Cl)c3ccccc3n12 [UNC10225136A] | 23.04 | 86.64 | 90.29 |  |  | 3.50 | 100.81 | 121.13 |  |  |  |  |  | 
FC(F)(F)c1ccc(-c2nn3ncccc3c2-c2ccnc(Nc3cccc(C(F)(F)F)c3)n2)cc1 [UNC10225138A] | 11.01 | 86.01 | 92.79 |  |  | 4.73 | 102.80 | 109.82 |  |  |  |  |  | 
CC(C)c1nc(-c2cccc(NS(=O)(=O)c3c(F)cccc3F)c2)c(-c2ccnc(Nc3ccc(N4CCOCC4)nc3)n2)s1.Cl [UNC10225142A] | 11.69 | 81.90 | 103.74 |  |  | 18.86 | 106.42 | 109.80 |  |  |  |  |  | 
Nc1nc(N)c2nc(-c3ccccc3)[nH]c2n1 [UNC10225149A] | 9.26 | 120.42 | 98.36 |  |  | 6.49 | 89.50 | 98.14 |  |  |  |  |  | 
Cc1ccc(NC(=O)c2ccc(Cl)c(Cl)c2)cc1-c1ccc(C(=O)Nc2ccncc2)cc1 [UNC10225151A] | 10.75 | 125.83 | 117.17 |  |  | 6.14 | 92.58 | 82.55 |  |  |  |  |  | 
COc1cc2ncn(-c3cc(OCc4sccc4Cl)c(C(N)=O)s3)c2cc1OC [UNC10225153A] | 30.18 | 134.16 | 49.58 |  |  | 9.72 | 186.81 | 134.42 |  |  |  |  |  | 
CCn1c(-c2ccccn2)nc2cnccc21 [UNC10225156A] | 11.71 | 96.85 | 94.90 |  |  | 4.22 | 124.07 | 112.23 |  |  |  |  |  | 
O=c1[nH]cc(-c2ccc(N3CCOCC3)cc2)c2sc(-c3cn[nH]c3)cc12 [UNC10225158A] |  |  |  |  |  |  |  |  | 10.30 | 90.80 | 78.86 | 68.86 | 89.34 | 7.60
Fc1ccc(-c2nc3n(c2-c2ccncc2)CCS3)cc1 [UNC10225163A] | 5.95 | 64.81 | 90.62 | 100.39 | 119.65 | 3.29 |  |  |  |  |  |  |  | 
